Publication PMC7764243, “Alterins Produced by Oyster-Associated Pseudoalteromonas Are Antibacterial Cyclolipopeptides with LPS-Binding Activity” (Marine Drugs, 2020)
≈ marks a conversion by molar mass, not a printed value. *1 amine or outer side, *2 acyl side, *3 side chain or, on linkers, in order; H or OH if unused. Where a SMILES comes first, the peptide text is derived from it. Bridges are numbered along the chain shown (N, C = ends). [ ]: non-standard residue; d: D form. The star is where a group is joined. ξ: configuration not given here. Dab(3ξ-OH) = O=C([C@@H](N[*:1])C(O)CN[*:3])[*:2]; X1 = C/C=C(/N[*:1])C(=O)[*:2]; Nonanoyl = CCCCCCCCC(=O)*; Octanoyl = CCCCCCCC(=O)*; Dab = NCC[C@H](N)C(=O)O; X2 = CCCC/C=C\CCCC(=O)*

Assays:
A. hydrophila CIP 7614 = assay type: cell-based, Aeromonas hydrophila; settings: CIP 7614, 48 h
Description: (§1) Antibacterial activity was assayed against a panel of micro-organisms including human and aquaculture pathogenic bacterial species. MICs were performed and defined according to internationally recognized standards (CLSI [21]). Polymyxin B (PMB), an antibiotic CLP produced by Paenibacillus polymyxa, was used as positive control. The major produced alterins, i.e., alt_952, alt_954, alt_970 and alt_980 were assayed against the whole panel of target cells while the minor ones were only tested against a few bacterial strains (Table 2).
(§2) The bacterial strains Aeromonas caviae CIP 7616, Aeromonas hydrophila CIP 7614, Escherichia coli ML35, Escherichia coli SBS 363, Salmonella enterica CIP 8297 and Yersinia ruckeri ATCC 29473 were grown in Tryptic Soy Broth. The marine bacterial strains Vibrio crassostreaeJ2–9, Vibrio tasmaniensisLGP32, Vibrio tapetis CECT 4600 were grown in Marine Broth. All of them were cultivated at optimal temperature according to ATCC and CIP specifications. The strain Vibrio parahaemolyticus13-028A/3 was grown at 28 °C in Tryptic Soy Broth supplemented in NaCl (20 g.L^−1) according to [47]. The strains Pseudoalteromonas sp. hCg-6 and hCg-42 were cultured using a synthetic medium containing: 17.11 g sucrose, 30 g sea salts (Sigma-S9883), 7.6 g K2HPO4, 3 g KH2PO4 and 20 mL MEM 50X (Dulbecco) per liter. The cultures were grown at 18 °C for 72 h with shaking (100 rpm).
(§3) MICs were determined using broth microdilution method according to [21]. To resume, antibacterial compounds ranging from 0.1 to 100 µM were assayed against the target bacteria in mid-logarithmic phase culture (1.10^6 UFC.mL^−1) in adapted culture medium according to the strain. MICs were examined by unaided eye after a 48h-incubation time at the optimal temperature growth. The lipopeptide PMB (Sigma-P4932) was used as antibiotic control.

E. coli ML35 = assay type: cell-based, Escherichia coli; settings: ML35, 48 h
Description: as §1, §2, §3

E. coli SBS363 = assay type: cell-based, Escherichia coli; settings: E. coli SBS363 (short-chain LPS); broth microdilution, 0.1 to 100 µM, 1.10^6 UFC/mL, 48 h, read by unaided eye
Description: as §1, §2, §3

P. aeruginosa ATCC 27853 = assay type: cell-based, Pseudomonas aeruginosa; settings: ATCC 27853, 48 h
Description: as §1, §3

Pseudoalteromonas hCg-6 = assay type: cell-based, Pseudoalteromonas sp.; settings: 48 h
Description: as §1, §2, §3

S. enterica CIP 8297 = assay type: cell-based, Salmonella enterica; settings: broth microdilution, 0.1 to 100 µM, 1.10^6 UFC/mL, 48 h, read by unaided eye
Description: as §1, §2, §3

V. harveyi ORM4 = assay type: cell-based, Vibrio harveyi; settings: ORM4, 48 h
Description: as §1, §3

V. tasmaniensis LGP 32 = assay type: cell-based, Vibrio tasmaniensis; settings: 48 h
Description: as §1, §2, §3

Y. ruckeri ATCC 29473 = assay type: cell-based, Yersinia ruckeri; settings: ATCC 29473, 48 h
Description: as §1, §2, §3

Pseudoalteromonas hCg-42 = assay type: cell-based, Pseudoalteromonas sp.; settings: 48 h
Description: as §1, §2, §3

V. tapetis CECT 4600T = assay type: cell-based, Vibrio tapetis; settings: CECT 4600, 48 h
Description: as §1, §2, §3

V. tasmaniensis LGP32 = assay: Viability (cultivability, CFU count) in seawater; assay type: cell-based, Vibrio tasmaniensis
Description: As a first step, we have measured the antimicrobial activity of alt_952, alt_954, alt_970 and alt_980 against V. tasmaniensis LGP32 in seawater after a 4 hour-long incubation. […] The effects on membrane were also investigated under the same experimental conditions using live/dead bacterial viability kit for flow cytometry (Figure 6). A net cultivability loss of V. tasmaniensis (2-log reduction) was observed when incubated with alt_954 and alt_980 indicative of a bactericidal effect (Figure 7A). In these conditions, V. tasmaniensis was much less affected by alt_970 (1-log reduction) and not by alt_952 (Figure 7A).
[…] After a 4 h-long incubation, viable bacteria were counted. Diluted samples (50 µL) in sterile seawater were spread in duplicate on appropriate medium. Cultivable bacterial concentration (CFU mL^−1) was determined after overnight incubation at optimal growth temperature.

[1] = system: Vibrio tasmaniensis LGP32; assay: Membrane potential, DiBAC4(3) flow cytometry; assay type: cell-based
Description: To assess alterin physiological impact on Gram-negative cells, flow cytometry analyses were implemented using Live/Dead cell viability assay and the membrane potential dye, DiBAC4(3) on V. tasmaniensis LGP32 treated as previously (i.e., […]).
The membrane potential of the target bacteria was analysed using the potential-sensitive probe Bis-1,3-Dibutylbarbituric AcideTrimethineOxonol, (DiBAC4(3), MolecularProbes). DiBAC4(3) was reconstituted in DMSO stock solution at 1mM and stocked at −20 °C until use. Samples (500 µL) were incubated with 1 µL of DiBAC4(3) stock solution for 10mn in the dark. Under the effect of depolarization cells accumulate DiBAC4(3), fluoresce bright green and can easily be detected by flow cytometry. After excitation at 488 nm cells with depolarized membrane become fluorescent and reemit at 516 nm recovery of the signal at FL1. Positive control of the initial sample is carried out with 20% alcohol.

In the case of `C/C=C1/NC(=O)[C@@H](NC(=O)CCCCCCC)C(O)CNC(=O)[C@H](C(O)CN)NC(=O)[C@H](C(O)CN)NC(=O)[C@H](CCCNC(=N)N)NC(=O)[C@H](CC(C)C)NC(=O)[C@H](CCN)NC1=O` (stereo partly shown) [alt_926] (Octanoyl-[Dab(3ξ-OH)][X1][Dab]LR[Dab(3ξ-OH)][Dab(3ξ-OH)]; lactam 1-C), the MIC (A. hydrophila CIP 7614) is reported as >100 µM, the MIC (E. coli ML35) is reported as 100 µM (≈ 92.7 µg/mL) and the MIC (E. coli SBS363) is reported as 50 µM (≈ 46.4 µg/mL). For the same molecule, the MIC (P. aeruginosa ATCC 27853) was >100 µM, the MIC (Pseudoalteromonas hCg-6) was >100 µM and the MIC (S. enterica CIP 8297) was 12.5 µM (≈ 11.6 µg/mL). It also gave an MIC (V. harveyi ORM4) of 50 µM (≈ 46.4 µg/mL), an MIC (V. tasmaniensis LGP 32) of 50 µM (≈ 46.4 µg/mL) and an MIC (Y. ruckeri ATCC 29473) of 50 µM (≈ 46.4 µg/mL).
In the case of `C/C=C1/NC(=O)[C@@H](NC(=O)CCCCCCCC)C(O)CNC(=O)[C@H](C(O)CN)NC(=O)[C@H](C(O)CN)NC(=O)[C@H](CCCNC(=N)N)NC(=O)[C@H](CC(C)C)NC(=O)[C@H](CCN)NC1=O` (stereo partly shown) [alt_940] (Nonanoyl-[Dab(3ξ-OH)][X1][Dab]LR[Dab(3ξ-OH)][Dab(3ξ-OH)]; lactam 1-C), the MIC (A. hydrophila CIP 7614) is reported as 25 µM (≈ 23.5 µg/mL), the MIC (E. coli ML35) is reported as 50 µM (≈ 47.1 µg/mL) and the MIC (E. coli SBS363) is reported as 25 µM (≈ 23.5 µg/mL). For the same molecule, the MIC (P. aeruginosa ATCC 27853) was 50 µM (≈ 47.1 µg/mL), the MIC (Pseudoalteromonas hCg-6) was >100 µM and the MIC (V. harveyi ORM4) was 6.25 µM (≈ 5.88 µg/mL). For the same molecule, the MIC (V. tasmaniensis LGP 32) was 6.25 µM (≈ 5.88 µg/mL) and the MIC (Y. ruckeri ATCC 29473) was 6.25 µM (≈ 5.88 µg/mL).
`C/C=C1/NC(=O)[C@@H](NC(=O)CCC/C=C\CCCC)C(O)CNC(=O)[C@H](C(O)CN)NC(=O)[C@H](C(O)CN)NC(=O)[C@H](CCCNC(=N)N)NC(=O)[C@H](CC(C)C)NC(=O)[C@H](CCN)NC1=O` (stereo partly shown) [alt_952] (X2-[Dab(3ξ-OH)][X1][Dab]LR[Dab(3ξ-OH)][Dab(3ξ-OH)]; lactam 1-C) gave an MIC (E. coli ML35) of 25 µM (≈ 23.8 µg/mL), an MIC (E. coli SBS363) of 0.8 µM (≈ 0.763 µg/mL) and an MIC (P. aeruginosa ATCC 27853) of 50 µM (≈ 47.7 µg/mL). The MIC (Pseudoalteromonas hCg-42) was >100 µM, the MIC (Pseudoalteromonas hCg-6) was >100 µM and the MIC (S. enterica CIP 8297) was 6.25 µM (≈ 5.96 µg/mL). For the same molecule, the MIC (V. harveyi ORM4) was 12.5 µM (≈ 11.9 µg/mL), the MIC (V. tapetis CECT 4600T) was >100 µM and the MIC (V. tasmaniensis LGP 32) was 50 µM (≈ 47.7 µg/mL). For the same molecule, the MIC (Y. ruckeri ATCC 29473) was 0.4 µM (≈ 0.381 µg/mL), the “cultivability loss of V. tasmaniensis (log reduction of CFU)” value (V. tasmaniensis LGP32; 20 µM, 4 h incubation in sterile seawater, inoculum 1.10^6 UFC/mL, plated in duplicate) was “no antibacterial effect” and the “cultivability loss of V. tasmaniensis” value (V. tasmaniensis LGP32; 300 µM, 4 h in seawater (data not shown)) was “identical to those observed using alt_954 and alt_980 at 20 µM”. The “cells with depolarized membrane” value ([1]; 20 µM, 4 h in sterile seawater) was “around 55%” and the cells depolarization ([1]; 300 µM, 4 h in seawater) was 100%.
